Reference: patent publication US11780830B2, “Triazolone derivatives or salts thereof and pharmaceutical compositions comprising the same” (YUHAN CORPORATION, priority 2018, dated 2023)
Counter-ions that a name gives are not always drawn.

Legend:
Format in all cases: biochemical
[1] = biological target: T1, recombinant human MAO-A (monoamine oxidase-A) (Homo sapiens, UniProt P21397); assay: Activity on recombinant human MAO-A, method similar to the VAP-1 assay; details: substrate 0.5 mM tyramine; read-out: Inhibitory Activity (IC50, nM) MAO-A
T1 construct: purchased Sigma-Aldrich
T1 sequence (P21397 1-527): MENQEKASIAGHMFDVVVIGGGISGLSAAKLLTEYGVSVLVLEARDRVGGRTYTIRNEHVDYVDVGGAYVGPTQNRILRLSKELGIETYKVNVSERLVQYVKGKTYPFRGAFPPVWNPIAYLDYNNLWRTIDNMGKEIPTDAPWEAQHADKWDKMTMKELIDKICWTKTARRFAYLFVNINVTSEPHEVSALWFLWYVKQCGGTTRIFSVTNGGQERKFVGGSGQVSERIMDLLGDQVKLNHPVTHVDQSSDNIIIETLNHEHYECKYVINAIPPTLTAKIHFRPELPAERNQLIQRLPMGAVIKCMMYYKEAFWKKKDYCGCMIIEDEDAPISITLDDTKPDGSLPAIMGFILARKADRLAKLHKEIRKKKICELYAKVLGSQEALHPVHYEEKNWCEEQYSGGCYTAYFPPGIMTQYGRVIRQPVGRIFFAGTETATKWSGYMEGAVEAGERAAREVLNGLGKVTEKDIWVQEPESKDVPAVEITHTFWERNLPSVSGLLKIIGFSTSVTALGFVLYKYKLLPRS
Outline: (§1)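 Enzyme in pH 7.4 phosphate buffer; 30 min, 37° C with compound (DMSO <1%); start with 200 uM Amplex Red + 1 U/mL HRP + tyramine 0.5 mM (MAO-A) or benzylamine 1 mM (MAO-B); kinetic read ex 544/em 590, 1-2 h; % rate decrease vs DMSO control → IC50, 4-parameter fit.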

[2] = biological target: T2, recombinant human MAO-B (monoamine oxidase-B) (Homo sapiens, UniProt P27338); assay: Activity on recombinant human MAO-B, method similar to the VAP-1 assay; details: substrate 1 mM benzylamine; read-out: Inhibitory Activity (IC50, nM) MAO-B
T2 construct: purchased Sigma-Aldrich
T2 sequence (P27338 1-520): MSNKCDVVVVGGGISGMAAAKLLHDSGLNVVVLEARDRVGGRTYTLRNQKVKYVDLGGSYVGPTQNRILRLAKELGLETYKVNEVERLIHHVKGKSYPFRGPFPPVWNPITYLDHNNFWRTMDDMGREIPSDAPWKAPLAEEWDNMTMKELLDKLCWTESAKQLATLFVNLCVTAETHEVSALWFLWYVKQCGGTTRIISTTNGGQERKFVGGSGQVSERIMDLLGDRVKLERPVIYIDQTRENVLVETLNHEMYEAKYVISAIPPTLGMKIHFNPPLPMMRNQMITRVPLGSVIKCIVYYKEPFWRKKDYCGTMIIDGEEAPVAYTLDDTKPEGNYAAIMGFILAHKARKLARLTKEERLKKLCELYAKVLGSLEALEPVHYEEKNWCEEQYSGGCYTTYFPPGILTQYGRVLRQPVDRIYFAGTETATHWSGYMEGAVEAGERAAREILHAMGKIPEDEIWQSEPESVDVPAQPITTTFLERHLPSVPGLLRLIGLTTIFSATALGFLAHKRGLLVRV
Outline: as §1

[3] = biological target: T3, recombinant human DAO (diamine oxidase) (Homo sapiens, UniProt P19801); assay: Activity on recombinant human DAO, method similar to the VAP-1 assay; details: substrate 1 mM putrescine; read-out: Inhibitory Activity (IC50, nM) DAO
T3 construct: purchased R&D systems
T3 sequence (P19801 20-751): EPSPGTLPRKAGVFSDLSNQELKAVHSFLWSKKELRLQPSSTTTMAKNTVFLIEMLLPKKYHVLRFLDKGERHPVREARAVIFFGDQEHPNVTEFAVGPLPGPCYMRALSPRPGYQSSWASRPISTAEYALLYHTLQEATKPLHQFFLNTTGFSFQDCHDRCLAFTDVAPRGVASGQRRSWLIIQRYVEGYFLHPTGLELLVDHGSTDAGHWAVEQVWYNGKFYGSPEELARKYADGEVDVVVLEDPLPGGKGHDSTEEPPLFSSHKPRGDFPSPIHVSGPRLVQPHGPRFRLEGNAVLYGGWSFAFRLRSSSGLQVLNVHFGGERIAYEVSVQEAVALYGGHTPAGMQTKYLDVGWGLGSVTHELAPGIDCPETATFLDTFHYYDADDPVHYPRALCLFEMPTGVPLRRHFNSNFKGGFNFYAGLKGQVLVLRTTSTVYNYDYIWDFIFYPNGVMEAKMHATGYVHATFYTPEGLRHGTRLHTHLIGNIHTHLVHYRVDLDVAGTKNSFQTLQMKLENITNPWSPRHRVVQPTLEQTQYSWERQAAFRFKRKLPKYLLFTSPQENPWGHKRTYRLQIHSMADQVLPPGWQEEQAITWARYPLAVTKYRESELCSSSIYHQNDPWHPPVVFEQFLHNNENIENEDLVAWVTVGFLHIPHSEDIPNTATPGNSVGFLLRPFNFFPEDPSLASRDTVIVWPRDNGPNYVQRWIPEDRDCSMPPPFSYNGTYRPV
Outline: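 Inhibition of recombinant human diamine oxidase (DAO, R&D systems) was assessed by the same approach as the VAP-1 assay, using 1 mM putrescine as substrate. Hydrogen peroxide formed was detected through an HRP-coupled Amplex Red reaction yielding fluorescent resorufin, read at 544 nm excitation and 590 nm emission. IC50 values came from four-parameter logistic fitting in GraphPad Prism.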

recombinant human VAP-1 = biological target: T4, recombinant human VAP-1 (Homo sapiens, UniProt Q16853); assay: Activity on recombinant human VAP-1, HRP-coupled Amplex Red hydrogen peroxide assay; details: substrate 1 mM benzylamine; compound incubated with enzyme at 37° C. for 30 minutes; pH 7.4; read-out: Inhibitory Activity (IC50, nM) human VAP-1
T4 construct: purchased R&D systems
T4 sequence (Q16853 1-763): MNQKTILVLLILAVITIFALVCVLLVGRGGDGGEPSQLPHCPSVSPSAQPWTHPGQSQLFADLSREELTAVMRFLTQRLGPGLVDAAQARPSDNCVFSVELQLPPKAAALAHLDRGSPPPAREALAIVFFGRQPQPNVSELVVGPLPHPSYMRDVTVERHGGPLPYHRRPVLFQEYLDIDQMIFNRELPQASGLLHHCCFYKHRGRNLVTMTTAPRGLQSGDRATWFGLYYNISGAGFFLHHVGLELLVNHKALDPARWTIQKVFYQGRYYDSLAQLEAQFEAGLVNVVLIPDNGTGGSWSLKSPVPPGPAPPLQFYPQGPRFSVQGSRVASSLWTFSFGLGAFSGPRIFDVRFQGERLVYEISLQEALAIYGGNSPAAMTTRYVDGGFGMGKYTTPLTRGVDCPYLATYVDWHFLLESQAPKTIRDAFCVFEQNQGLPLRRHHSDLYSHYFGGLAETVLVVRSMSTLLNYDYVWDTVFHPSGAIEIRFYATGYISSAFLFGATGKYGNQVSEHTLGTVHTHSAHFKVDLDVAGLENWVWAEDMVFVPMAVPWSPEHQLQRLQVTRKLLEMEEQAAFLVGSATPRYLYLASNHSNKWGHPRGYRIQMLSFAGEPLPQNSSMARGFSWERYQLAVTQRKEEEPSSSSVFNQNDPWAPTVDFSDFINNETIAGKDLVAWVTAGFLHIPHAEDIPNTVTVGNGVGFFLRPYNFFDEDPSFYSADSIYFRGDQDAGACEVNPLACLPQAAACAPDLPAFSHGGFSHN
Outline: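 Enzyme in 50 mM sodium phosphate (pH 7.4) is exposed to test compound for 30 min at 37 °C. Benzylamine (1 mM) with HRP and Amplex Red then starts the reaction, and the fluorescence rate, relative to a DMSO-only control, gives IC50.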

IC50 [1]	IC50 [2]	IC50 [3]	IC50 (recombinant human VAP-1)	Compound
25000 nM	370 nM	240 nM	0.25 nM	NC/C(=C\F)Cn1ncn(Cc2ccc(-c3ccc4c(c3Cl)NC(=O)CO4)s2)c1=O [Example 95, 6-[5-[[1-[(E)-2-(aminomethyl)-3-fluoro-allyl]-5-oxo-1,2,4-triazol-4-yl]methyl]-2-thienyl]-5-chloro-4H-1,4-benzoxazin-3-one hydrochloride]
87000 nM	120 nM	310 nM	0.8 nM	CN1C(=O)COc2ccc(-c3ccc(Cn4cnn(C/C(=C/F)CN)c4=O)s3)cc21 [Example 96, 6-[5-(1-[(2E)-2-(aminomethyl)-3-fluoroprop-2-en-1-yl]-5-oxo-1,5-dihydro-4H-1,2,4-triazol-4-ylmethyl)thiophen-2-yl]-4-methyl-2H-1,4-benzoxazin-3(4H)-one hydrochloride]
28000 nM	380 nM	230 nM	0.4 nM	CC1Oc2ccc(-c3ccc(Cn4cnn(C/C(=C/F)CN)c4=O)s3)cc2NC1=O (stereo not drawn) [Example 97, 6-[5-[[1-[(E)-2-(aminomethyl)-3-fluoro-allyl]-5-oxo-1,2,4-triazol-4-yl]methyl]-2-thienyl]-2-methyl-4H-1,4-benzoxazin-3-one hydrochloride]
> 100000 nM	530 nM	200 nM	0.4 nM	CC1(C)Oc2ccc(-c3ccc(Cn4cnn(C/C(=C/F)CN)c4=O)s3)cc2NC1=O [Example 98, 6-[5-[[1-[(E)-2-(aminomethyl)-3-fluoro-allyl]-5-oxo-1,2,4-triazol-4-yl]methyl]-2-thienyl]-2,2-dimethyl-4H-1,4-benzoxazin-3-one]
> 100000 nM	810 nM	140 nM	0.1 nM	NC/C(=C\F)Cn1ncn(Cc2ccc(-c3ccc4c(c3)NC(=O)OC4)s2)c1=O [Example 100, 7-[5-(1-[(2E)-2-(aminomethyl)-3-fluoroprop-2-en-1-yl]-5-oxo-1,5-dihydro-4H-1,2,4-triazol-4-ylmethyl)thiophen-2-yl]-1,4-dihydro-2H-3,1-benzoxazin-2-one hydrochloride]
> 100000 nM	540 nM	900 nM	0.2 nM	NC/C(=C\F)Cn1ncn(Cc2ccc(-c3ccc4c(c3)COC(=O)N4)s2)c1=O [Example 101, 6-[5-(1-[(2E)-2-(aminomethyl)-3-fluoroprop-2-en-1-yl]-5-oxo-1,5-dihydro-4H-1,2,4-triazol-4-ylmethyl)thiophen-2-yl]-1,4-dihydro-2H-3,1-benzoxazin-2-one hydrochloride]
> 100000 nM	480 nM	760 nM	0.2 nM	Cc1c(-c2ccc(Cn3cnn(C/C(=C/F)CN)c3=O)s2)ccc2c1COC(=O)N2 [Example 102, 6-[5-[[1-[(E)-2-(aminomethyl)-3-fluoro-allyl]-5-oxo-1,2,4-triazol-4-yl]methyl]-2-thienyl]-5-methyl-1,4-dihydro-3,1-benzoxazin-2-one]
15000 nM	1500 nM	1100 nM	3.2 nM	CN1CCOc2cc(-c3ccc(Cn4cnn(C/C(=C/F)CN)c4=O)s3)ccc21 [Example 103, 2-[(2E)-2-(aminomethyl)-3-fluoroprop-2-en-1-yl]-4-[5-(4-methyl-3,4-dihydro-2H-1,4-benzoxazin-7-yl)thiophen-2-yl]methyl-2,4-dihydro-3H-1,2,4-triazol-3-one hydrochloride]
4000 nM	1200 nM	390 nM	1.1 nM	CN1CCNc2cc(-c3ccc(Cn4cnn(C/C(=C/F)CN)c4=O)s3)ccc21 [Example 104, 2-[(E)-2-(aminomethyl)-3-fluoro-allyl]-4-[[5-(1-methyl-3,4-dihydro-2H-quinoxalin-6-yl)-2-thienyl]methyl]-1,2,4-triazol-3-one]
38400 nM	420 nM	8500 nM	1.8 nM	NC/C(=C\F)Cn1ncn(Cc2ccc(-c3ccc4c(c3)NCCO4)s2)c1=O [Example 105, 2-[(E)-2-(aminomethyl)-3-fluoro-allyl]-4-[[5-(3,4-dihydro-2H-1,4-benzoxazin-6-yl)-2-thienyl]methyl]-1,2,4-triazol-3-one]
11000 nM	250 nM	2500 nM	0.8 nM	NC/C(=C\F)Cn1ncn(Cc2ccc(-c3ccc4c(c3F)NCCO4)s2)c1=O [Example 106, 2-[(E)-2-(aminomethyl)-3-fluoro-allyl]-4-[[5-(5-fluoro-3,4-dihydro-2H-1,4-benzoxazin-6-yl)-2-thienyl]methyl]-1,2,4-triazol-3-one]
18000 nM	320 nM	960 nM	1.5 nM	NC/C(=C\F)Cn1ncn(Cc2ccc(-c3cc4c(cc3F)OCCN4)s2)c1=O [Example 107, 2-[(E)-2-(aminomethyl)-3-fluoro-allyl]-4-[[5-(7-fluoro-3,4-dihydro-2H-1,4-benzoxazin-6-yl)-2-thienyl]methyl]-1,2,4-triazol-3-one]
